{"source": "patent US20080200557A1", "about": "“Method for Inhibiting Lipid Peroxidation” (CARITAS ST. ELIZABETH HOSPITAL OF BOSTON, INC., priority 2004, published 2008)", "key": {"[1]": {"system": "lipid peroxidation induced by lipopolysaccharide (LPS) in mice brain tissues", "assay": "LPS-induced lipid peroxidation (TBARS/MDA) in mouse brain tissues", "assay_type": "biochemical", "details": "C57BI/6J mouse brain"}, "septic shock": {"system": "septic shock", "details": "patients suffering from septic shock; cited from earlier work"}, "toxic effect of LPS": {"system": "toxic effect of LPS", "details": "laboratory animals; cited from earlier work"}, "[2]": {"system": "lipid peroxidation induced by lipopolysaccharide (LPS) in rat brain tissues", "assay": "LPS-induced lipid peroxidation (TBARS/MDA) in rat brain homogenates", "assay_type": "biochemical, Fisher 344N male rats", "details": "rat brain homogenate, LPS 400 μg/ml", "experimental": "N-acetyldopamine, melatonin, 2-thiobarbituric acid, and LPS (Escherichia coli 0127:B8) were purchased from Sigma Chemical Co. (St. Louis, Mo.). The formation of thiobarbituric acid reactive substances (TBARS) was used as index of induced oxidative damage to lipid membranes. Lipid peroxidation was induced with LPS (400 μg/ml).\nBrain tissues from Fisher 344N male rats were homogenized in 20 mM pH 7.4 Tris buffer. The homogenates were then incubated (1 hr) in solvent alone (control) or in solvent+LPS (400 μg/ml), N-acetyldopamine+LPS, NAS+LPS, melatonin+LPS, and N-acetyldopamine+NAS+LPS (for concentrations of N-acetyldopamine, NAS and melatonin, see Results). TBARS were added, and homogenates were incubated for 20 min. in a boiling water bath. After cooling, the absorbance was measured spectrophotometrically at 532 nm. TBARS concentrations were derived from a standard curve of MDA (Oxis International, Portland, Oreg.). Protein was determined by Lowry method (Sigma Chem. Co., St. Louis, Mo.). Results are expressed as mean+S.D. (n=6). Data was treated by one-way ANOVA and Student's t-test."}, "[3]": {"system": "lipid peroxidation induced by FeCl2 in mice brain tissues", "assay": "FeCl2-induced lipid peroxidation (TBARS/MDA) in mouse brain tissues", "assay_type": "biochemical, mice C57BI/J6", "details": "FeCl2 1 mM", "experimental": "The effect of N-substituted dopamine derivatives on FeCl2-induced oxidative damage was evaluated in mice C57BI/J6 brain tissues.\nBrain tissues from C57BI/J6 […] were homogenized in 20 mM pH 7.4 Tris buffer. The homogenates were then incubated (1 hr) in solvent alone (control) or in solvent+FeCl2, N-acetyldopamine+FeCl2, N-methyldopamine (deoxyepinephrine)+FeCl2, 3-methoxyldopamine+FeCl2, and 4-methoxydopamine (3-hydroxy-4-methoxy phenethylamine HCl)+FeCl2. TBARS were added, and homogenates were incubated for 20 min. in a boiling water bath. After cooling, the absorbance was measured spectrophotometrically at 532 nm. TBARS concentrations were derived from a standard curve of MDA (Oxis International, Portland, Oreg.). Protein was determined by Lowry method (Sigma Chem. Co., St. Louis, Mo.). Results are expressed as mean +S.D. (n=6). Data was treated by one-way ANOVA and Student's t-test"}, "[4]": {"system": "LPS-induced hypotensive shock", "details": "rats; cited from earlier work"}, "LPS lethal effect": {"system": "LPS lethal effect", "details": "mice; cited from earlier work"}}}
{"compound": "COc1cc(CCN)ccc1O", "note": "[3-methoxydopamine, 4-hydroxyl-3-methoxy phenethylamine]", "values": [{"measurement": "effect on LPS-induced lipid peroxidation (MDA formation), in words", "setting": "[1]; FIGS. 6-7", "result": "inhibited LPS-induced formation of MDA in C57BI/6J mouse brain in a dose-dependent manner"}, {"measurement": "inhibition of LPS-induced formation of MDA", "setting": "[1]; at 200μ, FIG. 6", "result": 50, "unit": "%"}]}
{"compound": "COc1ccc2[nH]cc(CCNC(C)=O)c2c1", "note": "[Melatonin, melatonin]", "values": [{"measurement": "effect on lethality", "setting": "septic shock", "result": "prevent lethality"}, {"measurement": "effect on toxic effect of LPS", "setting": "toxic effect of LPS", "result": "counteract the toxic effect of LPS"}, {"measurement": "concentration reaching statistically significant inhibition of LPS-induced lipid peroxidation", "setting": "[2]; FIG. 3", "result": 800, "unit": "µM"}]}
{"compound": "CC(=O)NCCc1ccc(O)c(O)c1", "note": "[N-acetyldopamine]", "values": [{"measurement": "concentration from which inhibition of LPS-induced formation of MDA starts", "setting": "[2]; 1 hr incubation, FIG. 1", "result": 50, "unit": "µM"}, {"measurement": "concentration reaching complete inhibition of LPS-induced formation of MDA", "setting": "[2]; 1 hr incubation, FIG. 1", "result": 200, "unit": "µM"}, {"measurement": "effect on LPS-induced lipid peroxidation (MDA formation), in words", "setting": "[2]; FIGS. 1-2", "result": "inhibited LPS-induced formation of MDA in a dose-dependent manner"}]}
{"compound": "CNCCc1ccc(O)c(O)c1", "note": "[N-methyldopamine, N-methyldopamine (deoxyepinephrine)]", "values": [{"measurement": "concentration from which inhibition of FeCl2-induced formation of MDA starts", "setting": "[3]; FIG. 10", "result": 25, "unit": "µM"}, {"measurement": "concentration reaching complete inhibition of FeCl2-induced formation of MDA", "setting": "[3]; FIG. 10", "result": 200, "unit": "µM"}, {"measurement": "effect on FeCl2-induced formation of MDA, in words", "setting": "[3]; FIGS. 8-12", "result": "most prominent effect"}]}
{"compound": "CC(=O)NCCc1c[nH]c2ccc(O)cc12", "note": "[NAS, N-acetylserotonin]", "values": [{"measurement": "protection against LPS-induced hypotensive shock", "setting": "[4]", "result": "protects rats against LPS-induced hypotensive shock"}, {"measurement": "protection against LPS lethal effect", "setting": "LPS lethal effect", "result": "protects"}]}
